Laboratory results: patent US20150133434A1, “Compositions and Methods for Reactivating Latent Immunodeficiency Virus” (priority 2012, published 2015)
“Also recorded” adds a separate entry of the source.

Key:
[1] = tested on: latent DHIV-GFP, X4 virus in nonpolarized T helper cells; test: Primary T-cell model of latency, ex vivo differentiated nonpolarized CD4+ T cells; assay type: cell-based, HIV-1; details: 96 h after compound addition; minor effect only at highest doses
[2] = tested on: latent LTR-GFP construct in J-Lat A72 cells; test: J-Lat A72 cells (LTR-GFP lacking Tat), flow cytometry of GFP; assay type: cell-based, HIV-1; details: 18 h
Experimental: (§1) HEK293T and Jurkat cells were obtained from the American Type Culture Collection. J-Lat (clones A2 and A72) cell lines were described. HEK293T cells were cultured in DMEM supplemented with 10% FBS, 1% L-glutamine and 1% penicillin-streptomycin (Life Technologies). Jurkat and J-Lat cells were cultured in RPMI supplemented with 10% FBS, 1% L-glutamine, and 1% penicillin-streptomycin. TNFα (Sigma-Aldrich) was used at concentrations of 0.25 or 1 ng/ml. Human αCD3 and αCD28 (BD Biosciences) were used at concentrations of 3 and 1 μg/ml, respectively. Prostratin (Sigma) was used at a suboptimal concentration of 0.5 μM, and SAHA (NCI Chemical Carcinogen Repository, Midwest Research Institute) was used at 2.5 μM.
(§2) To determine if BET inhibition specifically activates Tat-dependent transcription, a J-Lat cell line was utilized that harbored a latent lentiviral construct expressing Tat with GFP from the HIV LTR (clone A2; LTR-Tat-IRES-GFP). […] Stimulation with JQ1 yielded up to ninefold more GFP-expressing cells than control-treated cells, and a 22-fold increase was observed when cells were co-treated with JQ1 and low doses of TNFα (FIG. 21A). […] Here, an up to 22-fold increase in GFP^+ cells resulted from JQ1 treatment alone and a 45-fold increase when TNFα was added with JQ1 (FIG. 21B). Both cell lines were also treated with prostratin and SAHA (FIG. 27).
(§3) Two latent J-Lat cell lines A2 (containing a LTR-Tat-IRES-GFP construct) or A72 (containing a LTR-GFP construct) were treated with JQ1 or (R)-JQ1 in combination with TNFα or control at the indicated concentrations for 18 h, followed by flow cytometry analysis. […] Data represent average (±SD) of three independent experiments. All treatments in (A) and (B) on the X axis are in μM.

[3] = tested on: latent HIV-1 in Bcl-2-transduced resting CD4+ T cells; assay type: cell-based; details: 24-72 h, average of two donors
[4] = tested on: latent LTR-Tat-IRES-GFP construct in J-Lat A2 cells; test: J-Lat A2 cells (LTR-Tat-IRES-GFP), flow cytometry of GFP; assay type: cell-based, HIV-1; details: 18 h
Experimental: as §1, §2, §3

[5] = tested on: HIV LTR-luciferase reporter (Tat transactivation); test: Tat transactivation of the HIV promoter, LTR-luciferase in Jurkat 1G5-Tat cells; assay type: cell-based; details: 1G5-Tat clonal cell lines
Experimental: Compounds that specifically bind to the bromodomain of PCAF in vitro were tested in an in vivo assay that measures the transactivation of the HIV promoter by Tat. The Jurkat 1G5 cells contain a stably integrated and silent HIV LTR-luciferase reporter construct. These cells were infected with an HIV-based retroviral vector expressing a 101-amino acids Tat (Tat2ex), generating the 1G5-Tat cells. Introduction of Tat protein activates HIV transcription and produces a stable increase in luciferase activity. Clonal cell lines were derived from the original population and have characterized them in terms of luciferase expression and response to Tat inhibitors. Luciferase expression is stable over time in each clone and is inhibited by more than 80% in response to DRB, a known inhibitor of CDK9 kinase activity and Tat transactivation.
Compounds were tested by incubating them at various concentrations ranging from 1.25 to 40 μM on either 1G5 cells, to test for effects on the HIV LTR, or on 1G5-Tat cells to test for effects on Tat-induced HIV transcription. After 24 hr, cells were harvested and processed for luciferase activity measurement.

[6] = tested on: latent HIV (clone R7/E-/GFP) in Jurkat T cells; test: Reactivation of latent HIV in polyclonal Jurkat T cells (clone R7/E-/GFP), flow cytometry of GFP; assay type: cell-based, HIV-1; details: compound alone, increasing amounts
Experimental: A polyclonal population of Jurkat T cells containing latent HIV (clone R7/E-/GFP) was treated with increasing amounts of JQ1. This viral clone contains a frameshift mutation in the viral Env gene to prevent viral spread and expresses GFP in the Nef open reading frame, which allows separation of actively infected GFP^+ from GFP^− cells by cell sorting. GFP^− cells, which are mostly uninfected but contain a small fraction of latently infected cells with silenced HIV transcription, were treated with JQ1. Activation of transcription was measured by flow cytometry of GFP. […] Stimulation of cells with JQ1 produced up to fivefold more GFP-expressing cells than control-treated cells.
HIV clones R7/E-/GFP and NL4-3/E-/GFP-IRES-nef were derived from pR7-GFP and pNLENG1-EGFP by mutating the Env gene by inserting an early stop codon in the NdeI site. […]. Jurkat cells were spininfected with 25 ng of p24 per 10^6 cells, and GFP^− cells where collected in two rounds of cell sorting 5 and 15 days after infection. The expanded population of GFP^− cells, composed of uninfected and latently infected cells, was seeded in 96-well plates and treated with the indicated concentration of drugs in duplicates. The percentage of GFP^+ cells was detected after 24 h at the MACSQuant VYB FACS analyzer. Data are expressed as the mean percentage of GFP^+ cells, subtracting the average percentage of spontaneous GFP-reactivation in the untreated samples. (A) Jurkat cells containing latent R7/E-/GFP virus were treated with JQ1 or (R)-JQ1 in combination with Prostratin (0.5 μM), SAHA (2.5 μM), TNFα (1 ng/μl), or control at the indicated concentrations for 18 h, followed by flow cytometry analysis. […] Results represent average of two independent experiments. All treatments in (A) and (B) on the X axis are in μM.

SMILES	reversal of latency (GFP) [1]	activation of HIV transcription (GFP) [2]	activation of HIV transcription (GFP) ([2]; listed as I-BET151)	reactivation of latent HIV-1 relative to costimulation with αCD3 and αCD28 antibodies [3]	activation of HIV transcription (GFP) [4]	activation of HIV transcription (GFP) ([4]; listed as I-BET151)	inhibition of luciferase expression [5]	reactivation of HIV-1 (GFP+ cells) [6]
O=C(CCCCCCC(=O)Nc1ccccc1)NO [SAHA, suberoylanilidehydroxamic acid]	resistant to reactivation							
COc1cc2c(cc1-c1c(C)noc1C)ncc1[nH]c(=O)n([C@H](C)c3ccccn3)c12 [I-Bet151, 7-(3,5-dimethylisoxazol-4-yl)-8-methoxy-1-((R)-1-(pyridin-2-yl)ethyl)-1H-imidazo[4,5-c]quinolin-2(3H)-one]		effectively activated HIV from latency	increased GFP expression	same activation	effectively activated HIV from latency	increased GFP expression		
OC[C@H]1O[C@@H](n2cnc3cc(Cl)c(Cl)cc32)[C@H](O)[C@@H]1O [DRB]							more than 80%	
COC(=O)C[C@@H]1N=C(c2ccc(Cl)cc2)c2c(sc(C)c2C)-n2c(C)nnc21 [MS417, Methyl 2-((6S)-4-(4-chlorophenyl)-2,3,9-trimethyl-6H-thieno[3,2-f][1,2,4]triazolo[4,3-a][1,4]diazepin-6-yl)acetate]	minor activatory effect	effectively activated HIV from latency; also recorded: increased GFP expression		same activation	effectively activated HIV from latency; also recorded: increased GFP expression			
Cc1sc2c(c1C)C(c1ccc(Cl)cc1)=N[C@H](CC(=O)OC(C)(C)C)c1nnc(C)n1-2 [(R)-JQ1]		did not activate the integrated HIV promoter			inactive and not and did not activate the integrated HIV promoter			not
